Assay results: ChEMBL document CHEMBL1143740, “Conformationally locked thiosugars as potent alpha-mannosidase inhibitors: synthesis, biochemical and docking studies” (Bioorg Med Chem, 2007)

Assay: Inhibition of jack bean alpha-mannosidase
Parameters: species or system Canavalia ensiformis

Row | Ki | SMILES
1 | 0.385 µM | [O-][S+]1C[C@@H]2O[C@H]1[C@@H](O)[C@H](O)[C@@H]2O (stereo partly drawn)
2 | 1.38 µM | OC1[C@H](O)C2CSC(O2)[C@H]1O (single isomer, unassigned) [THIOLEVOMANNOSAN]
3 | 0.35 µM | O=S1(=O)C[C@@H]2O[C@H]1[C@@H](O)[C@H](O)[C@@H]2O
